These results are taken from patent US9423396B2, “Bodipy structure fluorescence probes for diverse biological applications” (National University of Singapore, priority 2011, dated 2016).

Structures are written as SMILES.

The data set in a line: Spectroscopic measurements (absorption, emission, quantum yield, extinction coefficient). It is filed as physicochemical. The note with it: for Abs: absorption maximum; for Abs / ε / Flu / Qunt. Yield: BDNCA library; for Flu-Abs: difference of emission and absorption maxima; for ε: extinction coefficient, in M-1 cm-1 (unit assumed); for Flu: fluorescence emission maximum; for Qunt. Yield: quantum yield.

`CCOc1c(/C=C/C2=[N+]3C(=C(c4ccc(NC(=O)CCl)cc4)c4cccn4[B-]3(F)F)C(C)=C2)cccc1OC` [BDNCA-320]: the Abs came to 557 nm, the Flu-Abs was found to be 24, the ε is 59,588 and the Flu is reported as 581. For the same compound, the “Qunt. Yield” value was 0.10.
Turning to `CC1=CC(/C=C/c2ccc(Oc3ccc(F)cc3)cc2)=[N+]2C1=C(c1ccc(NC(=O)CCl)cc1)c1cccn1[B-]2(F)F` [BDNCA-322], the Abs is 561 nm, the Flu-Abs is on record as 27, the ε is given as 67,826 and the Flu is reported as 588. The “Qunt. Yield” value is 0.14.
For `Cc1cc(/C=C/c2ccc3c(c2)OC(F)(F)O3)n2c1C(c1ccc(NC(=O)CCl)cc1)=C1C=CC=[N+]1[B-]2(F)F` [BDNCA-332], in that order: 556 nm, 19, 27,735, 575 and 0.05.
With `CSc1ccccc1/C=C/C1=[N+]2C(=C(c3ccc(NC(=O)CCl)cc3)c3cccn3[B-]2(F)F)C(C)=C1` [BDNCA-333], the Abs was determined as 560 nm, the Flu-Abs was found to be 26, the ε is 63,707 and the Flu stood at 586. For the same compound, the “Qunt. Yield” value is 0.12.
For `COc1ccc(/C=C/C2=[N+]3C(=C(c4ccc(NC(=O)CCl)cc4)c4cccn4[B-]3(F)F)C(C)=C2)cc1C` [BDNCA-335], in that order: 569 nm, 33, 41,739, 602 and 0.08.
Take `CCOc1ccccc1/C=C/c1cc(C)c2n1[B-](F)(F)[N+]1=CC=CC1=C2c1ccc(NC(=O)CCl)cc1` [BDNCA-336]: the Abs was 562 nm, the Flu-Abs was 23, the ε is reported as 63,982 and the Flu is on record as 585. Further, the “Qunt. Yield” value is listed as 0.12.
In the case of `CC1=CC(/C=C/c2c3ccccc3c(C)c3ccccc23)=[N+]2C1=C(c1ccc(NC(=O)CCl)cc1)c1cccn1[B-]2(F)F` [BDNCA-340], the Abs turned out to be 532 nm, the Flu-Abs amounted to 17, the ε was 36,247 and the Flu came out at 549. Also, the “Qunt. Yield” value came out at 0.04.
On to `CC1=CC(/C=C/c2ccccc2Oc2ccc(F)cc2)=[N+]2C1=C(c1ccc(NC(=O)CCl)cc1)c1cccn1[B-]2(F)F` [BDNCA-341], for which the Abs came out at 558 nm, the Flu-Abs is listed as 22, the ε is 58,764 and the Flu stood at 580. Besides, the “Qunt. Yield” value was 0.10.
As for `CC1=CC(/C=C/c2cc(C)c(C)cc2C)=[N+]2C1=C(c1ccc(NC(=O)CCl)cc1)c1cccn1[B-]2(F)F` [BDNCA-343], the Abs is 562 nm, the Flu-Abs was 26, the ε is on record as 28,284 and the Flu is given as 588. Besides, the “Qunt. Yield” value was determined as 0.06.
Take `CC1=CC(/C=C/c2cccc(OC(F)(F)C(F)F)c2)=[N+]2C1=C(c1ccc(NC(=O)CCl)cc1)c1cccn1[B-]2(F)F` [BDNCA-345]: the Abs was 621 nm, the ε was 12,082, the Flu result was “weak” and the “Qunt. Yield” value is recorded as “weak”.
Regarding `Cc1cc(/C=C/c2cc(OC(F)(F)F)ccc2O)n2c1C(c1ccc(NC(=O)CCl)cc1)=C1C=CC=[N+]1[B-]2(F)F` [BDNCA-346], the Abs was 561 nm, the Flu-Abs was determined as 23, the ε was 16,476 and the Flu worked out at 584. Moreover, the “Qunt. Yield” value is listed as 0.02.
For `COc1ccc(/C=C/C2=[N+]3C(=C(c4ccc(NC(=O)CCl)cc4)c4cccn4[B-]3(F)F)C(C)=C2)c(OC)c1C` [BDNCA-347], in that order: 569 nm, 35, 34,874, 604 and 0.08.
The matching figures for `CC1=CC(/C=C/c2cccc(C)c2C)=[N+]2C1=C(c1ccc(NC(=O)CCl)cc1)c1cccn1[B-]2(F)F` [BDNCA-349]: 556 nm, 22, 36,247, 578 and 0.03.
Consider `COc1ccc(/C=C/C2=[N+]3C(=C(c4ccc(NC(=O)CCl)cc4)c4cccn4[B-]3(F)F)C(C)=C2)cc1[N+](=O)[O-]` [BDNCA-350], for which the Abs amounted to 560 nm, the Flu-Abs was determined as 21, the ε is listed as 34,874 and the Flu was determined as 581. The “Qunt. Yield” value turned out to be 0.07.
In the case of `CC1=CC(/C=C/c2ncc[nH]2)=[N+]2C1=C(c1ccc(NC(=O)CCl)cc1)c1cccn1[B-]2(F)F` [BDNCA-353], the Abs turned out to be 570 nm, the Flu-Abs stood at 44, the ε is given as 15,652 and the Flu worked out at 614. The “Qunt. Yield” value is given as 0.01.
For `Cc1cc(/C=C/c2ccc(SC(F)(F)F)cc2)n2c1C(c1ccc(NC(=O)CCl)cc1)=C1C=CC=[N+]1[B-]2(F)F` [BDNCA-363], in that order: 558 nm, 18, 41,190, 576 and 0.08.
In the case of `CC1=CC(/C=C/c2ccccc2OC(F)(F)F)=[N+]2C1=C(c1ccc(NC(=O)CCl)cc1)c1cccn1[B-]2(F)F` [BDNCA-365], the Abs came to 553 nm, the Flu-Abs was determined as 16, the ε is on record as 45,584 and the Flu was determined as 569. Moreover, the “Qunt. Yield” value is given as 0.07.
As for `COc1cc(O)c(/C=C/C2=[N+]3C(=C(c4ccc(NC(=O)CCl)cc4)c4cccn4[B-]3(F)F)C(C)=C2)c(OC)c1` [BDNCA-366], the Abs came to 579 nm, the Flu-Abs was found to be 50, the ε is reported as 38,444 and the Flu worked out at 629. Also, the “Qunt. Yield” value came out at 0.02.
As for `CC1=CC(/C=C/c2cc3ccccc3o2)=[N+]2C1=C(c1ccc(NC(=O)CCl)cc1)c1cccn1[B-]2(F)F` [BDNCA-368], the Abs was 578 nm, the Flu-Abs is listed as 23, the ε is recorded as 21,968 and the Flu turned out to be 601. Also, the “Qunt. Yield” value is on record as 0.03.
As to `CC1=CC(/C=C/c2ccc(C)cc2C)=[N+]2C1=C(c1ccc(NC(=O)CCl)cc1)c1cccn1[B-]2(F)F` [BDNCA-370], the Abs amounted to 507 nm, the Flu-Abs is listed as 78, the ε is listed as 34,050 and the Flu came out at 585. Moreover, the “Qunt. Yield” value is on record as 0.08.
`COc1ccc(/C=C/c2cc(C)c3n2[B-](F)(F)[N+]2=CC=CC2=C3c2ccc(NC(=O)CCl)cc2)c(Cl)c1OC` [BDNCA-372]: the Abs was found to be 565 nm, the Flu-Abs amounted to 29, the ε is reported as 69,474 and the Flu amounted to 594. In addition, the “Qunt. Yield” value was 0.13.
On to `CC1=CC(/C=C/c2c[nH]c3ccccc23)=[N+]2C1=C(c1ccc(NC(=O)CCl)cc1)c1cccn1[B-]2(F)F` [BDNCA-375], for which the Abs is 591 nm, the Flu-Abs is listed as 63, the ε is recorded as 21,968 and the Flu is 654. Also, the “Qunt. Yield” value is reported as 0.02.
As to `Cc1cc(/C=C/c2ccc(N(C)C)c3ccccc23)n2c1C(c1ccc(NC(=O)CCl)cc1)=C1C=CC=[N+]1[B-]2(F)F` [BDNCA-377], the Abs is 590 nm, the ε is on record as 58,215, the Flu result is given as “weak” and the “Qunt. Yield” value is on record as “weak”.
As for `Cc1cc(/C=C/c2ccc(OCc3ccc(F)cc3)cc2)n2c1C(c1ccc(NC(=O)CCl)cc1)=C1C=CC=[N+]1[B-]2(F)F` [BDNCA-378], the Abs was 566 nm, the Flu-Abs was 31, the ε is 92,540 and the Flu amounted to 597. In addition, the “Qunt. Yield” value is given as 0.16.
Take `CC1=CC(/C=C/c2ccccc2I)=[N+]2C1=C(c1ccc(NC(=O)CCl)cc1)c1cccn1[B-]2(F)F` [BDNCA-384]: the Abs was found to be 555 nm, the Flu-Abs worked out at 23, the ε is reported as 60,686 and the Flu is 578. Also, the “Qunt. Yield” value was 0.11.
With `CCOc1cc(/C=C/C2=[N+]3C(=C(c4ccc(NC(=O)CCl)cc4)c4cccn4[B-]3(F)F)C(C)=C2)ccc1O` [BDNCA-397], the Abs stood at 573 nm, the Flu-Abs worked out at 40, the ε was 38,444 and the Flu came out at 613. Besides, the “Qunt. Yield” value stood at 0.01.
Consider `CC1=CC(/C=C/c2cccc(B(O)O)c2)=[N+]2C1=C(c1ccc(NC(=O)CCl)cc1)c1cccn1[B-]2(F)F` [BDNCA-404], for which the Abs came to 556 nm, the Flu-Abs is given as 18, the ε was 18,124 and the Flu was determined as 574. Further, the “Qunt. Yield” value was determined as 0.03.
With `Cc1cc(/C=C/c2cc(Cl)ccc2Cl)n2c1C(c1ccc(NC(=O)CCl)cc1)=C1C=CC=[N+]1[B-]2(F)F` [BDNCA-407], the Abs amounted to 555 nm, the Flu-Abs turned out to be 20, the ε is on record as 42,288 and the Flu came to 575. Moreover, the “Qunt. Yield” value is 0.07.
The matching figures for `Cc1cc(/C=C/c2ccc(Br)cc2)n2c1C(c1ccc(NC(=O)CCl)cc1)=C1C=CC=[N+]1[B-]2(F)F` [BDNCA-409]: 557 nm, 20, 87,597, 577 and 0.14.
In the case of `CC1=CC(/C=C/C2CCCCC2)=[N+]2C1=C(c1ccc(NC(=O)CCl)cc1)c1cccn1[B-]2(F)F` [BDNCA-414], the Abs stood at 524 nm, the Flu-Abs turned out to be 23, the ε is listed as 49,428 and the Flu amounted to 547. The “Qunt. Yield” value was 0.09.
